The compounds below were run against T1, Protein deacetylase HDAC6 (Homo sapiens, UniProt Q9UBN7) (assay: Displacement of N-terminal FITC-labeled RLRGG from N-terminal AviTag/C-terminal His6-tagged HDAC6 ZnF-UBD (unknown origin) expressed in Escherichia coli BL21 (DE3) after 10 mins by fluorescence polarization assay). Settings: not given; call rule not given here.
T1 sequence (Q9UBN7 whole entry): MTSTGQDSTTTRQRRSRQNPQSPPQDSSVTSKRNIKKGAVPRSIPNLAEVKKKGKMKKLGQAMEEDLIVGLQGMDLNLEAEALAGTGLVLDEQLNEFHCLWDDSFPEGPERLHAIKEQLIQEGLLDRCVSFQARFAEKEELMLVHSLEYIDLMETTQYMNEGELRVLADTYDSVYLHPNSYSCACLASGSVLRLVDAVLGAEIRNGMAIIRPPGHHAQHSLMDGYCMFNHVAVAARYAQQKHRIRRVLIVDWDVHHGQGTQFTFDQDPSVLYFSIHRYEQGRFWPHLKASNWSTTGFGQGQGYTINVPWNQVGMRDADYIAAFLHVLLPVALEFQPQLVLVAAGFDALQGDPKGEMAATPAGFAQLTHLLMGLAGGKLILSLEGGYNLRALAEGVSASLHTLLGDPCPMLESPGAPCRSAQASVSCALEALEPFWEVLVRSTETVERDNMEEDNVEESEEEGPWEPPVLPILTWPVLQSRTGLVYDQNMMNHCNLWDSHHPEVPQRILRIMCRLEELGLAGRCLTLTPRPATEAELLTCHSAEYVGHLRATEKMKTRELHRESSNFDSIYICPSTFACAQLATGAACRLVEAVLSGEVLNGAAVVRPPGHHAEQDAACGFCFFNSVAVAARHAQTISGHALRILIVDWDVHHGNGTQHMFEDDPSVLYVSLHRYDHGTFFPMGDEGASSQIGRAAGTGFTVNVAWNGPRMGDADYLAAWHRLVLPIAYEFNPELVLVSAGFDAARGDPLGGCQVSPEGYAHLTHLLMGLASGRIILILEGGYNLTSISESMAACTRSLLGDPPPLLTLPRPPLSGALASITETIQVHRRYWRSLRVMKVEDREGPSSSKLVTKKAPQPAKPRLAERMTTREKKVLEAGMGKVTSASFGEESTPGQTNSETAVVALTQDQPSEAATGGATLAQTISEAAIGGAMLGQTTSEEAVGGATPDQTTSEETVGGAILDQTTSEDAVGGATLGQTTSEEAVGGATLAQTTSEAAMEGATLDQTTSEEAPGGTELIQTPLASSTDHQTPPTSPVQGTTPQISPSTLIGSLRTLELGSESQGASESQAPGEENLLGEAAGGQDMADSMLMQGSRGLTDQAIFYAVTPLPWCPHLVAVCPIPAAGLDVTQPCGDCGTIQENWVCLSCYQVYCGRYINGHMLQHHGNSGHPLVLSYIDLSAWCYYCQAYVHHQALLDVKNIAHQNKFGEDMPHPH

How did the IC50 turn out when `COC(CC(=O)O)c1nc2ccccc2s1` (stereo unspecified) was run?
The IC50 was “Not Active”.

For `COC(=O)CCc1nc2ccccc2nc1OC`, which IC50 is on record?
Its IC50 is “Not Active”.

How did the IC50 turn out when `O=C(O)CCc1nc2ccccc2[nH]1` [PROCODAZOLE] was run?
The IC50 was “Not Active”.

`O=C(O)Cc1ccc2ccccc2n1` was tested. Which IC50 did it give?
The IC50 was “Not Active”.

For `O=C(O)CCCc1nc2ccccc2s1`, which IC50 is on record?
The IC50 was “Not Active”.

With `CN(C(=O)Cn1c(CS(C)(=O)=O)nc2ccccc21)c1ccccc1` as the compound, how does the IC50 read?
The IC50 was “Not Active”.

For `CS(=O)(=O)Cc1nc2ccccc2n1CC(=O)Nc1cccc(NC(N)=O)c1`, which IC50 is on record?
Its IC50 is “Not Active”.

Which IC50 does the source give for `O=C(O)CCc1cc2ccccc2o1` here?
The IC50 was “Not Active”.

For `O=C(O)C(O)C(O)c1nc2ccccc2s1` (stereo unspecified), which IC50 is on record?
Its IC50 is “Not Active”.

With `O=C(O)CCc1nc2ccccc2o1` as the compound, how does the IC50 read?
Its IC50 is “Not Active”.

With `CC(Cc1nc2ccccc2s1)C(=O)O` (stereo unspecified) as the compound, how does the IC50 read?
The IC50 was “Not Active”.

How did the IC50 turn out when `COC(Cc1nc2ccccc2s1)C(=O)O` (stereo unspecified) was run?
The IC50 was “Not Active”.

Which IC50 does the source give for `CNC(=O)CCc1nc2ccccc2nc1OC` here?
The IC50 was “Not Active”.

How did the IC50 turn out when `COc1nc2ccccc2nc1CCC(N)=O` was run?
Its IC50 is “Not Active”.

`COc1nccnc1CCC(=O)O` was tested. Which IC50 did it give?
Its IC50 is “Not Active”.

Same assay, conditions: read-out: IC50

`O=C(O)CCc1nc2ccccc2s1` was tested. Which IC50 did it give?
Its IC50 is 180 µM.

`Cc1cc(C)c2c(n1)sc1c(=O)n(CC(=O)O)cnc12` was tested. Which IC50 did it give?
The IC50 was 190 µM.

With `COc1cc2ncn(CCC(=O)O)c(=O)c2cc1OC` as the compound, how does the IC50 read?
Its IC50 is 95 µM.

For `Cn1c(=O)c(CCC(=O)O)nc2ccccc21`, which IC50 is on record?
Its IC50 is 65 µM.

With `COc1cc2ncn(CC(=O)O)c(=O)c2cc1OC` as the compound, how does the IC50 read?
The IC50 was 44 µM.

How did the IC50 turn out when `O=C(O)CCc1ccc2ccccc2n1` was run?
Its IC50 is greater than 720 µM.

`NC(=O)c1cc(-n2c(CCC(=O)O)nc3ccccc32)cs1` was tested. Which IC50 did it give?
Its IC50 is 640 µM.

`O=C(O)CCc1nc2cc(Cl)ccc2n(Cc2ccccc2)c1=O` was tested. Which IC50 did it give?
Its IC50 is 150 µM.

Which IC50 does the source give for `O=C(O)Cn1nc(O)c2ccccc2c1=O` here?
The IC50 was 200 µM.

With `N#Cc1c2n(c3c(=O)n(CC(=O)O)cnc13)CCCC2` as the compound, how does the IC50 read?
The IC50 was 77 µM.

`O=C(O)CCn1nnc2ccccc2c1=O` was tested. Which IC50 did it give?
The IC50 was 240 µM.

For `O=C(O)Cn1cnc2c(oc3ccccc32)c1=O`, which IC50 is on record?
Its IC50 is 51 µM.

Which IC50 does the source give for `Cn1c(CCC(=O)O)nc2ccccc21` here?
Its IC50 is 100 µM.

For `COc1nc2ccccc2nc1CCC(=O)O`, which IC50 is on record?
The IC50 was 45 µM.

Which IC50 does the source give for `O=C(O)CCc1nc2cc3nc(CCC(=O)O)sc3cc2s1` here?
The IC50 was 5.1 µM.

For `O=C(O)Cn1cnc2ccc(Br)cc2c1=O`, which IC50 is on record?
The IC50 was 200 µM.

With `O=C(O)CCc1nc2ccccc2c2nc(=O)c(Cc3ccccc3)nn12` as the compound, how does the IC50 read?
The IC50 was 25 µM.

With `O=C(O)Cc1nc2ccccc2s1` as the compound, how does the IC50 read?
The IC50 was 390 µM.

`O=C(O)CCc1nc(O)c2ccccc2n1` was tested. Which IC50 did it give?
Its IC50 is 230 µM.

For `O=C(O)Cn1cnc2ccccc2c1=O`, which IC50 is on record?
Its IC50 is 320 µM.

The compounds below were run against T1, Protein deacetylase HDAC6 (assay: Binding affinity to biotinylated HDAC6 ZnF-UBD (unknown origin) by surface plasmon resonance method). Settings: not given.

With `O=C(O)CCc1nc2cc3nc(CCC(=O)O)sc3cc2s1` as the compound, how does the Kd read?
The Kd was 8 µM.
